Source: patent publication US20230151025A1, “SUBSTITUTED THIAZOLOPYRIDINES, SALTS THEREOF AND THEIR USE AS HERBICIDALLY ACTIVE SUBSTANCES” (Bayer Aktiengesellschaft, priority 2020, published 2023)

What follows are compounds tested on Amaranthus retroflexus (AMARE) (assay: Herbicidal pre-emergence action (A), 1280 g/ha). Conditions: visual grading after ca. 3 weeks vs untreated controls.
Format: in vivo
Outline: (§1)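 Visual grading of plant damage in percent (0% as untreated control, 100% dead) was done about 3 weeks after treatment. Compounds, as WP or EC in water with 0.5% additive, had been sprayed at 600 l/ha onto the covering soil of freshly sown sandy loam pots.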

Compound | herbicidal effect AMARE [%]
Fc1cccc(-c2ccc3scnc3n2)c1 [Example I-118] | 90
CCc1cc2sc(S)nc2nc1-c1ccccc1C [Example I-158] | 90

What follows are compounds tested on Digitaria sanguinalis (DIGSA) (assay: Herbicidal pre-emergence action (A), 1280 g/ha). Conditions: visual grading after ca. 3 weeks vs untreated controls, 100% = plants have died off, 0% = as control plants.
Format: in vivo
Outline: as §1

Compound | DIGSA, herbicidal effect in percent (%)
Fc1cccc(-c2ccc3scnc3n2)c1 [Example I-118] | 100

Each compound was assayed on Echinochloa crus-galli (ECHCG) (assay: Herbicidal pre-emergence action (A), 1280 g/ha). Conditions: visual grading after ca. 3 weeks vs untreated controls, 100% = plants have died off, 0% = as control plants.
Format: in vivo
Outline: as §1

Compound | ECHCG, herbicidal effect in percent (%)
CCc1cc2sc(S)nc2nc1-c1ccccc1C [Example I-158] | 100

Each compound was assayed on Lolium rigidum (LOLRI) (assay: Herbicidal pre-emergence action (A), 1280 g/ha). Conditions: visual grading after ca. 3 weeks vs untreated controls, 100% = plants have died off, 0% = as control plants.
Format: in vivo
Outline: as §1

Compound | LOLRI, herbicidal effect in percent (%)
Fc1cccc(-c2ccc3scnc3n2)c1 [Example I-118] | 100

Each compound was assayed on Matricaria inodora (MATIN) (assay: Herbicidal pre-emergence action (A), 1280 g/ha). Conditions: visual grading after ca. 3 weeks vs untreated controls.
Format: in vivo
Outline: as §1

Compound | herbicidal effect MATIN [%]
Fc1cccc(-c2ccc3scnc3n2)c1 [Example I-118] | 90

The compounds below were run on Poa annua (POAAN) (assay: Herbicidal pre-emergence action (A), 1280 g/ha). Conditions: visual grading after ca. 3 weeks vs untreated controls, 100% = plants have died off, 0% = as control plants.
Format: in vivo
Outline: as §1

Compound | POAAN, herbicidal effect in percent (%)
Fc1cccc(-c2ccc3scnc3n2)c1 [Example I-118] | 100

What follows are compounds tested on Setaria viridis (SETVI) (assay: Herbicidal pre-emergence action (A), 1280 g/ha). Conditions: visual grading after ca. 3 weeks vs untreated controls.
Format: in vivo
Outline: as §1

Compound | herbicidal effect SETVI [%]
Fc1cccc(-c2ccc3scnc3n2)c1 [Example I-118] | 100
Cc1cc2sc(S)nc2nc1-c1cccc(F)c1 [Example I-159, 5-(3-fluorophenyl)-6-methyl-thiazolo[4,5-b]pyridine-2-thiol] | 90

The compounds below were run on Stellaria media (STEME) (assay: Herbicidal pre-emergence action (A), 1280 g/ha). Conditions: visual grading after ca. 3 weeks vs untreated controls.
Format: in vivo
Outline: as §1

Compound | herbicidal effect STEME [%]
CCc1cc2sc([S+](C)[O-])nc2nc1-c1ccccc1C (centres unmarked) [Example I-022] | 90
Fc1cccc(-c2ccc3scnc3n2)c1 [Example I-118] | 100
CCc1cc2sc(S)nc2nc1-c1ccccc1C [Example I-158] | 90

The compounds below were run on Abutilon theophrasti (ABUTH) (assay: Herbicidal post-emergence action (B), 1280 g/ha). Conditions: rated visually after about 3 weeks vs untreated controls.
Format: in vivo
Outline: (§2)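 Greenhouse-grown weeds at the one-leaf stage received a foliar spray of the formulated compound (WP or EC, 0.5% additive, 600 L/ha). Damage was scored visually after about 3 weeks on a 0–100% scale against untreated plants.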

Compound | herbicidal activity ABUTH [%]
Cc1cc2sc(S)nc2nc1-c1cccc(F)c1 [Example I-159, 5-(3-fluorophenyl)-6-methyl-thiazolo[4,5-b]pyridine-2-thiol] | 90

These compounds were tested on Amaranthus retroflexus (AMARE) (assay: Herbicidal post-emergence action (B), 1280 g/ha). Conditions: rated visually after about 3 weeks vs untreated controls.
Format: in vivo
Outline: as §2

Compound | herbicidal activity AMARE [%]
CCc1cc2sc([S+](C)[O-])nc2nc1-c1ccccc1C (centres unmarked) [Example I-022] | 100
Fc1cccc(-c2ccc3scnc3n2)c1 [Example I-118] | 90
CCc1cc2sc(S)nc2nc1-c1ccccc1C [Example I-158] | 90

The compounds below were run on Digitaria sanguinalis (DIGSA) (assay: Herbicidal post-emergence action (B), 1280 g/ha). Conditions: rated visually after about 3 weeks vs untreated controls.
Format: in vivo
Outline: as §2

Compound | herbicidal activity DIGSA [%]
Cc1cc2sc(S)nc2nc1-c1cccc(F)c1 [Example I-159, 5-(3-fluorophenyl)-6-methyl-thiazolo[4,5-b]pyridine-2-thiol] | 100

The compounds below were run on Kochia scoparia (KCHSC; Bassia scoparia) (assay: Herbicidal post-emergence action (B), 1280 g/ha). Conditions: not given.
Format: in vivo
Outline: as §2

Compound | herbicidal effect KCHSC [%]
CCc1cc2sc([S+](C)[O-])nc2nc1-c1ccccc1C (centres unmarked) [Example I-022] | 90
Cc1cc2sc(S)nc2nc1-c1cccc(F)c1 [Example I-159, 5-(3-fluorophenyl)-6-methyl-thiazolo[4,5-b]pyridine-2-thiol] | 90

The compounds below were run on Matricaria inodora (MATIN) (assay: Herbicidal post-emergence action (B), 1280 g/ha). Conditions: rated visually after about 3 weeks vs untreated controls.
Format: in vivo
Outline: as §2

Compound | herbicidal activity MATIN [%]
CCc1cc2sc([S+](C)[O-])nc2nc1-c1ccccc1C (centres unmarked) [Example I-022] | 90
Fc1cccc(-c2ccc3scnc3n2)c1 [Example I-118] | 100
CCc1cc2sc(S)nc2nc1-c1ccccc1C [Example I-158] | 100

Each compound was assayed on Poa annua (POAAN) (assay: Herbicidal post-emergence action (B), 1280 g/ha). Conditions: rated visually after about 3 weeks vs untreated controls.
Format: in vivo
Outline: as §2

Compound | herbicidal activity POAAN [%]
Fc1cccc(-c2ccc3scnc3n2)c1 [Example I-118] | 100
CCc1cc2sc(S)nc2nc1-c1ccccc1C [Example I-158] | 100

The compounds below were run on Veronica persica (VERPE) (assay: Herbicidal post-emergence action (B), 1280 g/ha). Conditions: not given.
Format: in vivo
Outline: as §2

Compound | herbicidal effect VERPE [%]
Fc1cccc(-c2ccc3scnc3n2)c1 [Example I-118] | 90
CCc1cc2sc(S)nc2nc1-c1ccccc1C [Example I-158] | 90
